The test system of series [1] is arecoline hydrolase activity in HLM. In words: Reaction phenotyping with esterase inhibitors in HLM. The class given is biochemical, human. The conditions noted are these: HLM 0.2 mg/ml, arecoline 25 μM, 15 min; loperamide 1 μM, digitonin 20 μM, ethanol 41 mM, BNPP 10 μM, BW284c51 25 μM, ethopropazine 1 μM, vinblastine 10 μM.
Series [2] relates to arecoline hydrolase activity in HLC. Briefly: Reaction phenotyping with esterase inhibitors in HLC. The class given is biochemical, human. The conditions noted are these: HLC 0.2 mg/ml, arecoline 25 μM, 15 min; inhibitor concentrations as in HLM.
Series [3] in a line: Depletion of parent compound over 90 min in fresh or thermally-inactivated HLC. The class given is in vitro ADME, human.
Series [4] in a line: Enzyme kinetics of hydrolysis. The conditions noted are these: for Vmax: HLC 0.2 mg/ml, 15 min, 37 °C, rate of carboxylate metabolite formation; for Km at 15 min / CLint scaled / microsomal CLint: both, human, pH 7.4; for Km at 15 min: human liver cytosol (pooled); for CLint scaled / microsomal CLint: human liver cytosol. Format: in vitro ADME, human.
The nature of series [5]: Arecoline hydrolysis in human intestinal microsomes and cytosol. Format: in vitro ADME.
For series [6] the following is noted: mouse liver homogenate, cited from earlier work.
Series [7] has as its target T1, human recombinant CES1 (Homo sapiens, UniProt P23141).
T1 sequence (P23141 18-567): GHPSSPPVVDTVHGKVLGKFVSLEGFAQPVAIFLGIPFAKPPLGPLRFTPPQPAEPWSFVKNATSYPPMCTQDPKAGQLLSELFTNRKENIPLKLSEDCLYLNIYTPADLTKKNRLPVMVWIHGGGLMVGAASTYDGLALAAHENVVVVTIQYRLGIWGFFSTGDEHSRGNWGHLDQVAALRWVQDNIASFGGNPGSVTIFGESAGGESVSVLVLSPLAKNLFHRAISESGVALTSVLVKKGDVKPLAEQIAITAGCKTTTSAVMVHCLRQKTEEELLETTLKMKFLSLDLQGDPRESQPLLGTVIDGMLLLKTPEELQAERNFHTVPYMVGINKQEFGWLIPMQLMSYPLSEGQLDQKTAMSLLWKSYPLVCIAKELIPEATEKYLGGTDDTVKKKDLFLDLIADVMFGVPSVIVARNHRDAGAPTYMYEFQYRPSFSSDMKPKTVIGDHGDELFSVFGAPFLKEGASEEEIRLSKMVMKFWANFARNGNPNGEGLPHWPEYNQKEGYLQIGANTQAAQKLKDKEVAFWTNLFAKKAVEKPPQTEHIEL
In words: Arecoline hydrolysis by human recombinant CES1. Conditions: 5–40 min, CES protein 0.1–0.4 mg/ml. Format: in vitro ADME.

Series [8] deals with T2, human recombinant CES2 (Homo sapiens, UniProt O00748).
T2 sequence (O00748 27-559): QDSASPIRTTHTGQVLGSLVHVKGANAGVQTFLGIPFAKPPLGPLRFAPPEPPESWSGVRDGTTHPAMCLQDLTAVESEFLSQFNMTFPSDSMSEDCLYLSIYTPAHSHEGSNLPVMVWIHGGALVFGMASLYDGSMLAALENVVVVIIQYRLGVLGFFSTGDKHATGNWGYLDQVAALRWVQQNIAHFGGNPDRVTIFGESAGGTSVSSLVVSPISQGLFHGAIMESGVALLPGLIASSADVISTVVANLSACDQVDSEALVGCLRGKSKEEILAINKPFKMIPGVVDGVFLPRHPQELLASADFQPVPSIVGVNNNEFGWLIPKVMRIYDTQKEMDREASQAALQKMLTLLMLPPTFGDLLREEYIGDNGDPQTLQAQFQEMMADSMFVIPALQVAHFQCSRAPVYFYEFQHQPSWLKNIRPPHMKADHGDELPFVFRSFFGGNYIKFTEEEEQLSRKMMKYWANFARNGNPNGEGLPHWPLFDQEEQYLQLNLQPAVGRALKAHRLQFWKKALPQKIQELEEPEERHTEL
In words: Arecoline hydrolysis by human recombinant CES2. Format: in vitro ADME. Conditions: 5–40 min, CES protein 0.1–0.4 mg/ml.

Series [9] can be described thus: Fraction unbound to plasma proteins by ultrafiltration. Format: in vitro ADME. Conditions: plasma protein in sodium phosphate buffer, pH 7.4.
The subject of series [10] is plasma proteins. The series is described as above. Format: in vitro ADME. The conditions noted are these: from fu.p.
Series [11] in a line: Depletion of parent compound over 90 min in fresh or thermally-inactivated HLM. The conditions noted are these: for parent level remaining: at 90 min. The class given is in vitro ADME, human.
For series [12] the following is noted: subjects with Alzheimer's disease treated with arecoline; cited from earlier work.
Series [13] can be described thus: Enzyme kinetics of hydrolysis. The class given is in vitro ADME, human. The conditions noted are these: for EH: hepatic extraction ratio; for ClH: well-stirred model, Q 21 ml/min/kg; for Km at 15 min / CLint scaled / microsomal CLint: both, human, pH 7.4; for Km at 15 min: human liver microsomes (pooled); for CLint scaled / microsomal CLint: human liver microsomes. In general terms: Microsomes from liver hold many membrane-bound enzymes, among them those of drug oxidation.

Setting [14] is: both, human, human liver cytosol, pH 7.4.
Setting [15] is: both, human, human liver microsomes, pH 7.4.

`CC[C@]1(O)C[C@@H]2CN(CCc3c([nH]c4ccccc34)[C@@](C(=O)OC)(c3cc4c(cc3OC)N(C)[C@H]3[C@@](O)(C(=O)OC)[C@H](OC(C)=O)[C@]5(CC)C=CCN6CC[C@]43[C@@H]65)C2)C1` [vinblastine]: the “percent activity of arecaidine formation compared to control” value (“percent activity of arecaidine formation” for short) in series [1] was found to be 100%. In series [2], the “change in mean percent activity of arecoline hydrolase compared to control” value (“change in mean percent activity” for short) is on record as “no significant change”.

`CCN(CC)C(C)CN1c2ccccc2Sc2ccccc21` (centres unmarked) [ethopropazine]: the “percent activity of arecaidine formation” value in series [1] worked out at 102%. Also, the “change in mean percent activity” value in [2] is reported as “no significant change”.

For the compound `C=CC[N+](C)(C)c1ccc(CCC(=O)CCc2ccc([N+](C)(C)CC=C)cc2)cc1.[Br-].[Br-]` [BW284c51, 1,5-Bis(4-allyldimethylammoniumphenyl)pentan-3-one dibromide], the “percent activity of arecaidine formation” value in series [1] is recorded as 103%. For the same compound, the “change in mean percent activity” value in series [2] is listed as “no significant change”.

In the case of `CCO` [ethanol], the “percent activity of arecaidine formation” value in series [1] is 44.6%. Moreover, the “change in mean percent activity” value in series [2] was “significant reductions”.

With `C[C@@H]1CC[C@@]2(OC1)O[C@H]1[C@@H](O)[C@H]3[C@@H]4CC[C@H]5C[C@@H](O[C@@H]6O[C@H](CO)[C@H](O[C@@H]7O[C@H](CO)[C@@H](O)[C@H](O[C@@H]8OC[C@@H](O)[C@H](O)[C@H]8O)[C@H]7O[C@@H]7O[C@H](CO)[C@H](O)[C@H](O[C@@H]8O[C@H](CO)[C@@H](O)[C@H](O)[C@H]8O)[C@H]7O)[C@H](O)[C@H]6O)[C@H](O)C[C@]5(C)[C@H]4CC[C@]3(C)[C@H]1[C@@H]2C` [digitonin], the “percent activity of arecaidine formation” value in series [1] worked out at 70%. Further, in series [2], the “change in mean percent activity” value is on record as “significant reductions”.

In general, half-life refers to the time in which the quantity being followed falls by half. What is called Km is the concentration of substrate that gives half-maximal velocity. For orientation: CLint scaled means the rate of metabolic loss divided by the concentration. Low readings indicate slow turnover, high ones rapid turnover. As usually defined, the microsomal CLint is the capacity of the preparation to metabolise the compound, expressed as a volume cleared per time. Low readings indicate greater metabolic stability, high ones faster metabolism. As a reminder, the fraction unbound is the share of the substance not bound to proteins or other matrix. With `COC(=O)C1=CCCN(C)C1` [arecoline], in series [3] (at 90 min, initial arecoline 10 μM), the “arecoline concentration remaining in HLC samples compared to HLM samples” value is listed as “approximately 12.8 fold”. Moreover, in series [3] (setting [14]), the half-life at 10 μM was determined as 97 min, the half-life at 100 μM is 99.8 min and the half-life at 1000 μM came out at 126 min. In [4], the Vmax amounted to 118 nmol/min/mg protein, the Km at 15 min was 9.11 mM, the CLint scaled is 11.6 mL/min/kg and the microsomal CLint was 12.9 µL/min/mg. In addition, the “arecoline hydrolysis in intestinal sub-cellular fractions” value in [5] is recorded as “no arecoline hydrolysis”. Besides, the depletion in [6] (30 min incubation) is on record as about 100%. The “maximum rate of arecoline depletion” value in [6] is listed as 4.7 nmol/min/mg protein. In addition, the “hydrolysis by CES1” value in series [7] was “sub-stantial hydrolysis”. In addition, the “hydrolysis by CES2” value in [8] was “no hydrolysis”. Also, the fraction unbound at 15 min in series [9] worked out at 0.978. In [10], the “amount available for distribution to peripheral tissues” value is given as ~ 98% and the “amount predicted to bind plasma proteins” value was ~ 2%. Besides, the parent level remaining in [11] (HLM) stood at 5.6 % control. Further, in [11] (setting [15]), the half-life at 10 μM worked out at 15.7 min, the half-life at 100 μM is 16.6 min and the half-life at 1000 μM worked out at 17.2 min. The “average elimination T1/2 in plasma” value in series [12] is on record as 10.5 min. Also, in [13] (HLM), the EH amounted to 0.733 and the ClH was 15.4 mL/min/kg. In series [13], the Km at 15 min worked out at 8.68 mM, the CLint scaled worked out at 57.8 mL/min/kg and the microsomal CLint was determined as 90.3 µL/min/mg. Besides, the extraction ratio class entry in series [13] (from EH in HLM) is “high (> 0.7)”.

For the compound `COC(=O)C1=CCCNC1` [guvacoline], the depletion over time entry in [3] (HLC, all tested concentrations, data not shown) is on record as “only minimal depletion”. Besides, in series [4], the Vmax was 14.4 nmol/min/mg protein, the Km at 15 min worked out at 27.8 mM, the CLint scaled is 0.466 mL/min/kg and the microsomal CLint amounted to 0.518 µL/min/mg. Moreover, the fraction unbound at 15 min in series [9] was determined as 0.998. Also, the depletion over time entry in series [11] (HLM, all concentrations (0.01, 0.1, 1.0 mM), 90 min) is given as “only minimal depletion”. Moreover, the parent level remaining in [11] (HLM) worked out at 98 % control. Besides, in series [13] (HLM), the “ClH less compared to arecoline” value came out at 96%, the “Clint.invivo less compared to arecoline” value came to 99%, the “EH less compared to arecoline” value came out at 96% and the “Vmax less compared to arecoline” value came to 96%. Also, in series [13] (HLM), the EH is on record as 0.0306 and the ClH stood at 0.643 mL/min/kg. Besides, the Vmax in series [13] (HLM 0.2 mg/ml, 15 min, 37 °C, rate of carboxylate metabolite formation) is given as 35 nmol/min/mg protein. In addition, in [13], the Km at 15 min was 34.3 mM, the CLint scaled turned out to be 0.654 mL/min/kg and the microsomal CLint came out at 1.02 µL/min/mg.

Take `CN(C)C(=O)C(CCN1CCC(O)(c2ccc(Cl)cc2)CC1)(c1ccccc1)c1ccccc1` [loperamide]: the “percent activity of arecaidine formation” value in series [1] was 100.2%. In [2], the “change in mean percent activity” value is “no significant change”.

In the case of `O=[N+]([O-])c1ccc(OP(=O)(O)Oc2ccc([N+](=O)[O-])cc2)cc1` [BNPP, bis(4-nitrophenyl)-phosphate], in [1], the “percent activity of arecaidine formation” value is 14.4%. Further, the “change in mean percent activity” value in series [2] is “significant reductions”.
